Reference: patent US20240180855A1, “BIOACTIVE PRODUCTS” (priority 2021, published 2024)
Values joined by “and” are separate entries in the source; they are usually repeats but may differ in a detail not shown here. Equal values may be shown once. Read-outs that look alike come from different tables or passages of the source.

Experiments:
[1] = test system: Wheat seeds (Triticum aestivum L.); assay: Wheat growth under stress conditions (18° C.) after seed soaking (Example 2); format: in vivo; details: seeds soaked 1 hour at 37° C., 100 μg/ml, cultivation 18° C.; for Root length (cm) / Shoot length (cm): after 5 days
Procedure: The cultivation temperature was 18° C., instead of the required 23° C. The assessment of the state of the plants was carried out after 5 days (table 2).

[2] = test system: Fungi of the Saprolegnia spp.; assay: Time to inactivation of Saprolegnia fungi (Example 15); format: cell-based; set-up: key: —: No antimicrobial activity
Procedure: Fungi in the amount of 10e8 cells were added to 1.0 ml of a solution of the test substance and after incubation were washed by PBS with centrifugation, resuspended in buffer, and plated on potato agar to assess survival.

[3] = test system: patients with seborrheic dermatitis; assay: Treatment of seborrheic dermatitis (Example 23); format: in vivo, human; details: excipient alone, regimen not given; assessed within 14 days
Procedure: The efficacy of the drugs was assessed within 14 days, using objective and subjective measures (the prevalence of the disease, the degree of inflammation and infiltration of skin elements, the severity of itching, peeling and crusting). Dermatoscopy was done using the Heine, mini 3000 LED.

[4] = test system: wheat; details: in vivo
[5] = test system: wheat; assay: Wheat growth after seed treatment with reverse transcription, integration and protease inhibitors (Example 4); format: in vivo; details: seeds treated 1 hour at 37° C.; cultivation 23° C.
[6] = test system: Fish (Trout) fish eggs contaminated with various pathogens
[7] = test system: wheat; assay: Wheat growth after seed treatment with complexes of inhibitors and nucleases (Example 5); format: in vivo; details: seeds treated 1 hour at 37° C.; cultivation 23° C.
Procedure: Plant: wheat Treatment: The seeds were treated with various products for 1 hour, at 37° C. […] Cultivation temperature 23° C.

[8] = test system: wheat; assay: Regulation of wheat development after seed treatment (Example 3); format: in vivo; details: seeds treated 1 hour at 37° C.; cultivation 23° C.
Procedure: Plant: wheat. Treatment: The wheat seeds were treated with various nucleases or products of the M4 group for 1 hour, at 37° C. […] Cultivation temperature 23° C.

[9] = test system: Red Turkish Carnation Seeds; assay: Full cycle of plant growth after seed treatment with nucleases (Example 12); format: in vivo; details: seeds incubated with 100 μg/ml at 37° C. for 60 minutes
[10] = test system: Wheat seeds (Triticum aestivum L.); assay: Wheat seed germination on potato dextrose agar after soaking in products (Example 1); format: in vivo; details: seeds soaked 1 hour; nucleases 100 μg/ml at 37° C., M4 group products 0.5%
Text: Wheat seeds (Triticum aestivum L., healthy, not infected) were washed with water with soap, then without soap. […] Then the seeds (8 pieces) were laid out on potato dextrose agar (https://himedialabs.com/TD/M096.pdf). Treatment with test products.

[11] = test system: wheat; assay: Wheat growth after one-time watering with products (Example 7); format: in vivo; set-up: Shoot length / Root length: unit not given here; details: one-time watering 1000 μg/ml, 200 ml for 20 grains; day 5

Which “Emergence at day 5” value [1] does the source give for `COc1cc2c(cc1Cc1cccc(Cl)c1F)c(=O)c(C(=O)O)cn2[C@H](CO)C(C)C` [Elvitegravir] here?
Its value is 65%.

What about the “Root length (cm)” value [1] of the same compound?
Its value is 2.6 cm.

And the “Shoot length (cm)” value [1]?
Its value is 9.9 cm.

How did the “Time (minutes) to reach 100% inactivation” value ([2]; 0.005%) turn out when `OC[C@@H](O)[C@@H](O)[C@H](O)[C@H](O)CO` [Mannit (0.01%), Mannitol] was run?
Its value is “—”.

And the “Time (minutes) to reach 100% inactivation” value ([2]; 0.01%)?
The value was “—”.

What about the “Time (minutes) to reach 100% inactivation” value ([2]; 0.05%) of the same compound?
The value was “—”.

What about the “Time (minutes) to reach 100% inactivation” value ([2]; 0.1%) of the same compound?
Its value is “—”.

What about the “Time (minutes) to reach 100% inactivation” value ([2]; 0.5%) of the same compound?
The value was “—”.

What does the source list for `O=S(=O)([O-])[O-].[Zn+2]` [ZnSO4 0.01%, ZnSO4]?
Day at which prevalence of the symptoms was reduced by 80% [3]: >14 days; Time (minutes) to reach 100% inactivation ([2]; 0.005%): —; Time (minutes) to reach 100% inactivation ([2]; 0.01%): —; Time (minutes) to reach 100% inactivation ([2]; 0.05%): —; Time (minutes) to reach 100% inactivation ([2]; 0.1%): —; Time (minutes) to reach 100% inactivation ([2]; 0.5%): —*; Root length (cm) [4]: 5.7 cm and 7.1 cm; Seedling length (cm) [4]: 6.1 cm and 8.0 cm

`Nc1ccn([C@@H]2CS[C@H](CO)O2)c(=O)n1` [Lamivudine] was tested. Which “Chlorophyll total” value [5] did it give?
Its value is 54.3 mg/g.

And the “Emergence (%)” value [5]?
Its value is 55%.

And the “Root lenght (median)” value [5]?
The value was 9.

What about the “Shoot length (median)” value [5] of the same compound?
The value was 13.

Which Growth after plating [6] does the source give for `CN(C)c1ccc(C(=C2C=CC(=[N+](C)C)C=C2)c2ccccc2)cc1` [Malachite green] here?
The Growth after plating was “Lawn”.

What does the source list for `C[C@H](Cn1cnc2c(N)ncnc21)OCP(=O)(O)O` [Tenofovir]?
Chlorophyll total [5]: 57.7 mg/g; Emergence (%) [5]: 45%; Root lenght (median) [5]: 9; Shoot length (median) [5]: 14

How did the “Chlorophyll total” value [5] turn out when `Cc1ccnc2c1NC(=O)c1cccnc1N2C1CC1` [Nevirapine] was run?
The value was 52.9 mg/g.

And the “Emergence (%)” value [5]?
Its value is 25%.

What about the “Root lenght (median)” value [5] of the same compound?
The value was 0.

And the “Shoot length (median)” value [5]?
The value was 0.

How did the “Emergence at day 5” value [1] turn out when DNAse was run?
The value was 64%.

What about the “Root length (cm)” value [1] of the same compound?
The value was 2.1 cm.

What about the “Shoot length (cm)” value [1] of the same compound?
Its value is 6.9 cm.

And the “Chlorophyll total” value [7]?
Its value is 24.7 mg/g.

And the “Emergence (%)” value [7]?
Its value is 73%.

What about the Root lenght [7] of the same compound?
Its Root lenght is 3.6.

What about the Shoot length [7] of the same compound?
The Shoot length was 5.2.

And the Chlorophyll total [8]?
Its Chlorophyll total is 49.1.

And the “Emergence (%)” value [8]?
Its value is 67%.

What about the “Leaf length (cm)” value [8] of the same compound?
The value was 2.8 cm.

And the “Leaf width (cm)” value [8]?
The value was 1.4 cm.

And the Number of leaves [8]?
The Number of leaves was 2 + 1.

And the “Root length (cm)” value [8]?
Its value is 15.2 cm.

And the “Shoot length (cm)” value [8]?
The value was 5.8 cm.

What about the “Weight” value [8] of the same compound?
The value was 0.6 g.

What about the Emergence (%) [9] of the same compound?
Its Emergence (%) is 95%.

And the “Height on day 99” value [9]?
The value was 7+/−1.

What about the “Root branching at 99 days (words in the root length cell)” value [9] of the same compound?
Its value is “branched”.

And the “Root length at 99 days” value [9]?
Its value is 7+/−0.5.

And the “The appearance of the first leaves” value [9]?
Its value is 5th day.

What about the “The beginning of flowering” value [9] of the same compound?
The value was 183 days.

What about the “The emergence of the buds” value [9] of the same compound?
The value was 174 days.

And the “Weight of seeds on day 258/12 plants” value [9]?
Its value is 0.24 g.

And the “Germination (%) at day 5 Day 3” value [10]?
The value was 75%.

And the “Median shoot length (mm) Day 3” value [10]?
Its value is 24.6 mm.

How did the “Emergence at day 5” value [1] turn out when `Cc1nnc(C(=O)NC(C)(C)c2nc(C(=O)NCc3ccc(F)cc3)c(O)c(=O)n2C)o1` [Raltegravir] was run?
The value was 71%.

And the “Root length (cm)” value [1]?
Its value is 2.6 cm.

What about the “Shoot length (cm)” value [1] of the same compound?
The value was 9.8 cm.

And the “Chlorophyll total” value [7]?
The value was 25.9 mg/g.

What about the “Emergence (%)” value [7] of the same compound?
Its value is 42%.

And the Root lenght [7]?
Its Root lenght is 1.9.

What about the Shoot length [7] of the same compound?
The Shoot length was 5.7.

And the “Chlorophyll total” value [5]?
The value was 56.9 mg/g.

What about the “Emergence (%)” value [5] of the same compound?
The value was 60%.

What about the “Root lenght (median)” value [5] of the same compound?
Its value is 8.

And the “Shoot length (median)” value [5]?
Its value is 12.

With `Cc1cc(C#N)cc(C)c1Oc1nc(Nc2ccc(C#N)cc2)nc(N)c1Br` [Etravirine] as the compound, how does the “Chlorophyll total” value [7] read?
Its value is 25.0 mg/g.

What about the “Emergence (%)” value [7] of the same compound?
Its value is 75%.

What about the Root lenght [7] of the same compound?
The Root lenght was 5.5.

And the Shoot length [7]?
The Shoot length was 7.4.

And the “Chlorophyll total” value [5]?
Its value is 58.7 mg/g.

What about the “Emergence (%)” value [5] of the same compound?
Its value is 55%.

And the “Root lenght (median)” value [5]?
Its value is 9.

And the “Shoot length (median)” value [5]?
The value was 13.

With `CN(C)c1ccc2nc3ccc(=[N+](C)C)cc-3sc2c1` [Methylene blue] as the compound, how does the Growth after plating [6] read?
Its Growth after plating is “Lawn”.

For Trypsin, which “Chlorophyll total” value [7] is on record?
Its value is 30.3 mg/g.

What about the “Emergence (%)” value [7] of the same compound?
Its value is 49%.

And the Root lenght [7]?
Its Root lenght is 5.8.

What about the Shoot length [7] of the same compound?
The Shoot length was 2.5.

For `Nc1nc(NC2CC2)c2ncn([C@H]3C=C[C@@H](CO)C3)c2n1` [Abacavir], which “Chlorophyll total” value [5] is on record?
The value was 51.8 mg/g.

What about the “Emergence (%)” value [5] of the same compound?
Its value is 50%.

What about the “Root lenght (median)” value [5] of the same compound?
The value was 11.

What about the “Shoot length (median)” value [5] of the same compound?
Its value is 13.

`[H]/N=C(\N/C(=N/[H])NCCCCCCNC(=N)NC(=N)Nc1ccc(Cl)cc1)Nc1ccc(Cl)cc1` [Chlorhexidine] was tested. Which “Emergence at day 5” value [1] did it give?
Its value is 53%.

And the “Root length (cm)” value [1]?
The value was 1.9 cm.

What about the “Shoot length (cm)” value [1] of the same compound?
Its value is 6.3 cm.

What about the “Emergence (%)” value [11] of the same compound?
Its value is 50%.

What about the Root length [11] of the same compound?
Its Root length is 3.6.

And the Shoot length [11]?
The Shoot length was 6.9.

What about the “Germination (%) at day 5 Day 3” value [10] of the same compound?
Its value is 54%.

What about the “Median shoot length (mm) Day 3” value [10] of the same compound?
The value was 14.6 mm.

With `O=P([O-])([O-])O.[Na+].[Na+]` [Na2HPO4 (0.01%), Na2HPO4] as the compound, how does the “Time (minutes) to reach 100% inactivation” value ([2]; 0.005%) read?
The value was “—”.

And the “Time (minutes) to reach 100% inactivation” value ([2]; 0.01%)?
The value was “—”.

What about the “Time (minutes) to reach 100% inactivation” value ([2]; 0.05%) of the same compound?
The value was “—”.

And the “Time (minutes) to reach 100% inactivation” value ([2]; 0.1%)?
The value was “—”.

What about the “Time (minutes) to reach 100% inactivation” value ([2]; 0.5%) of the same compound?
The value was “—”.

What about the “Root length (cm)” value [4] of the same compound?
Its value is 7.7 cm and 5.9 cm.

And the “Seedling length (cm)” value [4]?
Its value is 8.4 cm and 6.1 cm.
